Counter-ions that a name gives are not always drawn.

In patent publication EP2769722A1 (Ruprecht-Karls-Universität Heidelberg, priority 2013, dated 2014) one finds IC50 data, which are given here for seven compounds.

This experiment deals with T1, CA (Human immunodeficiency virus type 1 group M subtype B, UniProt P12493).
T1 construct: a fusion protein of CA with glutathione-S-transferase (CA-GST)
The experiment can be described thus: AlphaScreen: inhibition of CAI-biotin peptide binding to CA-GST. The arrangement: species or system HIV-1. As to conditions: inhibition of CAI binding to CA (CA-GST fusion); compounds screened at 0.5-100 µM; read-out: α screen IC50. The protocol:
The AlphaScreen experiments are performed using Perkin Elmer Enspire plate reader in white 96-well ProxiPlates and PBS supplemented with 0.05% Tween20, 2mM DTT, 2% DMSO. First, Streptavidin-coated Donor beads are used to capture the CAI-biotin peptide. In the other solution, a fusion protein of CA with glutathione-S-transferase (CA-GST) is mixed with GSH Acceptor beads. Both mixtures were incubated and then mixed together. To test the ability of prepared organic compounds to inhibit the CAI binding to CA, they are screened at concentrations between 0.5-100 µM and IC50 values are calculated from the influenced signals.
Upon illumination by laser at 680 nm, Donor beads containing the photosensitizer phthalocyanine convert ambient oxygen to an excited form of singlet oxygen ^1O2. Singlet oxygen can within its half-life of ∼ 4µs diffuse approximately 200 nm in solution. If an Acceptor bead is within that proximity, which is mostly upon CA:CAI interaction, energy is transferred from the singlet oxygen to thioxene derivates within the Acceptor and signal at 520 - 620 nm is emitted. […] Table 4: Synthesized and tested compounds
(In general: Alpha assays give light when donor and acceptor beads are brought close together.)
Consider `Fc1ccc(Nc2ccnc(-c3ccncc3)n2)cc1F` [KP-360, N-(3,4-difluorophenyl)-2-(pyridin-4-yl)pyrimidin-4-amine dihydrochloride], for which the IC50 (as a rule, the concentration that gives 50% inhibition) is 81 µM.

For `CCOC(=O)c1ccc(Nc2ccnc(-c3cccnc3)n2)cc1` [AMR-722, ethyl4-((2-(pyridin-3-yl)pyrimidin-4-yl)amino)benzoate hydrochloride], the IC50 is 19 µM.

As for `Cc1ccc(NC(=O)c2cccc(C(F)(F)F)c2)cc1Nc1ccnc(-c2cncc(Br)c2)n1` [KP-384, N-(3-(2-(5-bromopyridin-3-yl)pyrimidin-4-ylamino-4-methylphenyl)-3-(trifluoromethyl)benzamide hydrochloride], the IC50 was over 100 µM.

As for `Cc1cc(Nc2ccc(C(=O)NCCF)cc2F)nc(-c2cccnc2)n1` [AMR-829, 3-fluoro-N-(2-fluoroethyl)-4-((6-methyl-2-(pyridin-3-yl)pyrimidin-4-yl)amino)benzamide hydrochloride], the IC50 was found to be 15 µM.

With `O=C(NCCF)c1ccc(Nc2ccnc(-c3cccnc3)n2)cc1F` [AMR-831, 2-fluoro-N-(2-fluoroethyl)-4-((2-(pyridin-3-yl)pyrimidin-4-yl)amino)benzamide hydrochloride], the IC50 worked out at 43 µM.

With `CCN(CC)CCOC(=O)c1ccc(Nc2ccnc(-c3cccnc3)n2)cc1F` [AMR-827, 2-(diethylamino)ethyl 2-fluoro-4-{(2-(pyridin-3-yl)pyrimidin-4-yl)amino)benzoate hydrochloride], the IC50 was over 100 µM.

Take `O=C(NCCF)c1ccc(Nc2ccnc(-c3ccncc3)n2)cc1` [AMR-763, N-(2-fluoroethyl)-4-((2-(pyridin-4-yl)pyrimidin-4-yl)amino)benzamide hydrochloride]: the IC50 was over 100 µM.
